The values that follow come from the Kinase Knowledgebase extract (Sharma et al. 2016).

For orientation: inhibition means the percentage by which the read-out fell short of the control. As usually defined, the IC50 is the point on the concentration scale where inhibition reaches its midpoint. Lower therefore signals greater potency in that assay.

The test addresses CDK2 (UniProt P24941). In words: Enzyme Assay.

`Cc1ccc(N=Nc2c(N)nc(N)nc2OCC2CCCCC2)cc1` yielded an inhibition (concentration not given here) of 6%.
On to `Nc1nc(OCC2COc3ccccc3O2)c2nc[nH]c2n1` (stereo not drawn), for which the IC50 was above 100 µM.
For `Nc1nc(OCC2COC3(CCCCC3)O2)c2nc[nH]c2n1` (stereo not drawn), the IC50 was above 100 µM.
As for `Nc1nc(OCC23CC4CC(CC(C4)C2)C3)c2nc[nH]c2n1`, the IC50 was above 100 µM.
`CC1(C)OCC(COc2nc(N)nc3[nH]cnc23)O1` (stereo not drawn) gave an IC50 above 100 µM.
Same read-out and setting: with `Nc1nc(OCc2cccc3ccccc23)c2nc[nH]c2n1` the figure was above 100 µM; with `C=CCOc1ncnc2[nH]cnc12`, above 100 µM.
Compound `CCOC(C)(COc1nc(N)nc2[nH]cnc12)OCC` returned an IC50 above 100 µM.
The compound `COC(COc1nc(N)nc2[nH]cnc12)(OC)c1ccccc1` gave an IC50 above 100 µM.
Take `CC1(C)OC2OC(COc3nc(N)nc4[nH]cnc34)C3OC(C)(C)OC3C2O1` (stereo not drawn): the IC50 was above 100 µM.
Still for that read-out and setting: as for `CC(C)C(=O)COc1nc(N)nc2[nH]cnc12`, the figure is above 100 µM.
`COCC(COc1nc(N)nc2[nH]cnc12)OC` (stereo not drawn) returned an IC50 above 100 µM.
Regarding `Nc1nc(OCCc2ccccc2)c2nc[nH]c2n1`, the IC50 was above 100 µM.
Consider `Nc1nc(OCc2ccc3ccccc3c2)c2nc[nH]c2n1`, for which the IC50 was above 100 µM.
Same read-out and setting: as for `c1nc(OCC2CCCCO2)c2nc[nH]c2n1` (stereo not drawn), the figure is above 100 µM.
On the same count and under the same terms, with `Nc1nc(OCC2CCCC2)c2nc[nH]c2n1` the figure was above 100 µM; with `C=CCOc1nc(N)nc2[nH]cnc12`, above 100 µM.
On the same count and under the same terms, with `Nc1nc(OCC2CCCCO2)c2nc[nH]c2n1` (stereo not drawn) the figure was above 100 µM; with `CC(C)C1(COc2nc(N)nc3[nH]cnc23)OCCO1`, above 100 µM; with `C=C(C)C1CC=C(COc2nc(N)nc3[nH]cnc23)CC1` (stereo not drawn), above 100 µM.
For the compound `CCC(COc1nc(N)nc2[nH]cnc12)(OC)OC`, the IC50 is above 100 µM.
The same measure, in the same setting: as for `Nc1nc(OCC(O)CO)c2nc[nH]c2n1` (stereo not drawn), the figure is above 100 µM; as for `COC1OC(COc2nc(N)nc3[nH]cnc23)C2OC(C)(C)OC12` (stereo not drawn), above 100 µM.
